Results: patent US5538971A, “Benzoquinoxalines, pharmaceutical compositions containing them and their use in treating schizophrenia” (Sandoz Ltd., priority 1991, dated 1996)
Like-named read-outs stand apart in the source and are kept apart here.

Key:
[1] = test system: rat; test: inhibition of locomotor activity increase induced by a D-1 agonist; format: in vivo; details: for inhibition of locomotor activity increase (in words): rat, D-1 agonist 10 mg/kg p.o., for the invention's compounds doses of ca. 0.1 to 10 mg/kg p.o. or ca. 0.1 to 0.5 mg/kg s.c.
Experimental: In this test, the substance to be tested is applied one hour before the D-1 agonist, and the locomotor activity is measured under red light using photoelectric cells.

[2] = test system: mouse; test: apomorphine induced rearing test; format: in vivo
Experimental: Thus when administered to the mouse at doses of ca. 0.05 to ca. 1 mg/kg p.o., there is observed a significant inhibition of the rearing induced by subcutaneous administration of 0.5 mg/kg of apomorphine. In this test, each mouse is contained in a glass cylinder (20 cm high, 8 cm diameter) on absorbent cardboard and rearing is quantified by accumulating the time spent with both forepaws off the ground during three 1-minute periods at 10 minute intervals after apomorphine administration. […] This test detects both classical and atypical anti-psychotics and thus has predictive value for efficacy in schizophrenia.

[3] = test system: rat; test: cataleptogenic activity (catalepsy); format: in vivo; details: rat, 1, 3.2 and 10 mg/kg p.o., observation period of 8 hours
Experimental: Furthermore at doses of ca. 1 to ca. 10 mg/kg p.o., the compounds according to the invention effect no catalepsy of the rat. Cataleptogenic activity is assessed as described by G. Stille et al. in Arzneimittel Forschung 15, 841-843 (1965). The criterion for catalepsy is fulfilled when posture retention time is longer than 10 seconds. In view of the lack of cataleptogenic activity, the risk that the compounds according to the invention might cause extra-pyramidal side effects is improbable.

[4] = target: T1, dopamine receptors of the D-1 type (Bos taurus, UniProt Q95136); test: inhibition of the dopamine-induced stimulation of adenylate cyclase in homogenates of bovine retina; format: biochemical; details: calculated from IC50 according to Cheng and Prusoff, read-out: pKi, adenylate cyclase functional test (converted)
T1 construct: homogenates of bovine retina; from tissue; host or cells: bovine retina homogenate
T1 sequence (Q95136 whole entry): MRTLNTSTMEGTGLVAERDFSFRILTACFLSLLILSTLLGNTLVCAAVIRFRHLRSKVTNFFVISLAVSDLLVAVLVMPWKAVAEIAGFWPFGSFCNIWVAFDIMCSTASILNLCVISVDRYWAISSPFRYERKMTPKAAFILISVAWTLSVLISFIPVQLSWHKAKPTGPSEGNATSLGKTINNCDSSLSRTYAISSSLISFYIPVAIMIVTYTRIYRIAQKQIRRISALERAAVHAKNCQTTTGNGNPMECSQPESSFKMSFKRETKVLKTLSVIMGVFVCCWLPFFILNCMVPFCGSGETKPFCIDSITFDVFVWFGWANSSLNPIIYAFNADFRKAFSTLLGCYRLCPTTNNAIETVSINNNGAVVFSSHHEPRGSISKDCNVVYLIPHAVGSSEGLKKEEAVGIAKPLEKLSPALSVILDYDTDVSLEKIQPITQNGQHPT
Source text: At concentrations of ca. 1 nmol/l to ca. […] the compounds according to the invention effect strong inhibition of the dopamine-induced stimulation of adenylate cyclase in homogenates of bovine retina [for the method see R. Markstein, Journal Neural. Transmission 51, 39-59 (1981)].
This activity also indicates the use of the compounds according to the invention in schizophrenia.

[5] = Mus musculus, po, 0.5 h, read-out: ED50, apomorphine-induced rearing
[6] = Mus musculus, sc, 0.5 h, read-out: ED50, apomorphine-induced rearing

**Q.** With CN1CC[C@@H](c2ccccc2)[C@@H]2c3cccc4[nH]c(Cl)c(c34)C[C@H]21 (stereo in doubt) [phenylergoline, (+)-(5R)[5β, 9α, 10α]-2-chloro-6-methyl-9-phenylergoline, reference compound] as the molecule, how does the inhibition at 2 mg/kg ([1]; Rattus norvegicus, Rat2, po, read-out: inhibition of locomotor activity increase) read?
**A.** The inhibition at 2 mg/kg was 45%.

**Q.** Which ED50 ([2]; po, 0.5 h, mouse, p.o., after 30 minutes, apomorphine 0.5 mg/kg s.c., read-out: ED50, apomorphine-induced rearing) does the source give for CN1CCN(C2=Nc3cc(Cl)ccc3Nc3ccccc32)CC1 [Clozapine, reference compound] here?
**A.** Its ED50 is 4.3 mg/kg.

**Q.** And the ED50 ([2]; sc, 0.5 h, mouse, s.c., after 30 minutes, apomorphine 0.5 mg/kg s.c., read-out: ED50, apomorphine-induced rearing)?
**A.** Its ED50 is 0.66 mg/kg.

**Q.** And the “inhibition of locomotor activity increase (in words)” value [1]?
**A.** The value was “active”.

**Q.** Cc1cc(Cl)ccc1N1CCN(C)[C@@H]2Cc3cccc(O)c3C[C@H]21 [Example 2, (-)-[4aR,10aR]-l,2,3,4,4a,5,10,10a-octahydro-4-(4'-chloro-2'-methyl-phenyl)-1-methyl-benzo[g]quinoxaline-6-ol] was tested. Which catalepsy [3] did it give?
**A.** The catalepsy was “fails to produce catalepsy”.

**Q.** And the ED50 [2, 5]?
**A.** Its ED50 is 0.38 mg/kg.

**Q.** What about the ED50 ([2]; Mus musculus, po, 1 h, read-out: E50, apomorphine-induced rearing after subchronic treatment) of the same molecule?
**A.** The ED50 was 0.28 mg/kg.

**Q.** What about the ED50 ([2]; Mus musculus, po, 1 h, read-out: ED50, apomorphine-induced rearing) of the same molecule?
**A.** Its ED50 is 0.14 mg/kg.

**Q.** And the ED50 [2, 6]?
**A.** Its ED50 is 0.033 mg/kg.

**Q.** And the ED50 ([2]; Mus musculus, sc, 1 h, read-out: ED50, apomorphine-induced rearing)?
**A.** Its ED50 is 0.04 mg/kg.

**Q.** And the Ki [4]?
**A.** Its Ki is 50.1 nM.

**Q.** What about the inhibition at 1 mg/kg ([1]; Rattus norvegicus, po, read-out: inhibition of locomotor activity increase) of the same molecule?
**A.** Its inhibition at 1 mg/kg is 76%.

**Q.** And the “inhibition of locomotor activity increase (in words)” value [1]?
**A.** Its value is “inhibits the locomotor activity increase more potently”.

**Q.** How did the ED50 [2, 5] turn out when O=C(CCCN1CCC(O)(c2ccc(Cl)cc2)CC1)c1ccc(F)cc1 [Haloperidol, reference compound] was run?
**A.** The ED50 was 0.03 mg/kg.

**Q.** And the ED50 [2, 6]?
**A.** The ED50 was 0.008 mg/kg.
